{"source": "patent US10328113B2", "about": "“Method for preventing or treating an allergic disease using extract from illicium verum” (Korea Institute of Oriental Medicine, priority 2012, dated 2019)", "key": {"IL-8": {"system": "IL-8", "experiment": "IL-8 secretion inhibition, PMA and A23187-stimulated MC/9 mast cells (ELISA)", "format": "cell-based", "conditions": "Mus musculus, Mast cell; positive control 10 nM; PMA + A23187, 7 hr; read-out: Inhibition rate of IL-8 (%)", "protocol": "(§1) MC/9 mouse mast cells seeded in a 96-well plate were treated with 20 nM PMA (Phorbol Myristate Acetate) and 0.5 μM or 1 μM calcium ionophore A23187, together with various concentrations of the Illicium verum extract (0, 25, 50, 100, 200 and 400 μg/ml). […] Seven hour later, the secreted amount of cytokines in medium was measured using the ELISA kit (R&D systems Inc., Minneapolis, USA). The 100% activity was calculated with referring to difference of the secreted cytokine amount between the untreated group and the treated group with PMA and A23187.\n(§2) The secretion amount was calculated as follows: [1−(the amount of the secreted cytokine in the treated group−the amount of the secreted cytokine in the untreated group)/(the amount of secreted […] in the untreated group]×100.\n(§3) The inhibition rate was calculated as follows: [1−(the amount of the secreted cytokine in the treated group−the amount of the secreted cytokine in the untreated group)/(the amount of secreted cytokine in positive control−the amount of the secreted cytokine in the untreated group]×100.\n(§4) All data were expressed as mean±standard deviation. Student's t-test was used to examine differences among groups and the data with p<0.05 were considered as statistically significant."}, "IL-4": {"system": "IL-4", "experiment": "IL-4 secretion inhibition, PMA and A23187-stimulated MC/9 mast cells (ELISA)", "format": "cell-based", "conditions": "Mus musculus, Mast cell; positive control 10 nM; PMA + A23187, 7 hr; read-out: Inhibition rate of IL-4 (%)", "protocol": "as §1, §2, §3, §4"}}}
{"smiles": "C[C@@H]1C[C@H]2[C@@H]3CCC4=CC(=O)C=C[C@]4(C)[C@@]3(F)[C@@H](O)C[C@]2(C)[C@@]1(O)C(=O)CO", "note": "[Dex, dexamethasone]", "values": [{"measurement": "inhibition at 0.01 µM", "setting": "IL-8", "result": 23, "unit": "%"}, {"measurement": "inhibition at 0.01 µM", "setting": "IL-4", "result": 0.4, "unit": "%"}]}
